{"source": "patent US10342765B2", "about": "“Therapeutic compositions comprising monoterpenes” (priority 2009, dated 2019)", "origin": "cited, not measured here", "key": {"[1]": {"system": "systemic malignancies including breast, lung, pancreatic, melanomas"}, "[2]": {"details": "nasal inhalation; nasal inhaler four times daily"}, "malignant gliomas": {"system": "malignant gliomas", "details": "patients with malignant gliomas; nasal inhalation"}}, "note": "“Also recorded” adds a separate entry of the source."}
{"smiles": "C=C(C)[C@@H]1CC=C(CO)CC1", "note": "[POH, perillyl alcohol]", "values": [{"measurement": "effectiveness against systemic malignancies", "setting": "[1]", "result": "effective"}, {"measurement": "tolerability in patients", "setting": "[2]", "result": "safely tolerated; also recorded: well tolerated, with minimal side effects"}, {"measurement": "tumor size (radiographic)", "setting": "malignant gliomas", "result": "radiographic reduction in tumor size"}]}
